In PubChem BioAssay AID248 (DTP/NCI, 2004):
Values joined by “and” are separate entries in the source; they are usually repeats but may differ in a detail not shown here. Equal entries are not always repeated. Inconclusive results and toxic doses are left out. Cut-off read from the data, not from the text of the source: active = T/C of 150% or more; inactive = T/C below 125%.

Tested on: L1210 leukemia ip in BDF1 mice, survival T/C
Test: NCI In Vivo Anticancer Drug Screen. Data for tumor model L1210 Leukemia (intraperitoneal) in B6D2F1 (BDF1) mice
Details: endpoint: mean survival time, higher = longer survival
Summary of the method: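 Value reflects the ratio of survival in compound-treated mice to survival in vehicle-treated controls, with both groups carrying the same transplanted tumor.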

[1] = dose: 100.0 mg/kg/injection, schedule: Q04DX003 (ip), vehicle: Klucel (hydroxypropylcellulose) (HPC)
[2] = dose: 200.0 mg/kg/injection, schedule: Q04DX003 (ip), vehicle: Klucel (hydroxypropylcellulose) (HPC)

Measured: T/C

CCCCCCCCC1OC1CCCCCCCC(=O)O (stereo unspecified)
inactive: dose: 25.0 mg/kg/injection, schedule: Q04DX002 (ip), vehicle: Klucel (hydroxypropylcellulose) (HPC) 108 % of control | dose: 50.0 mg/kg/injection, schedule: Q01DX001 (ip), vehicle: saline 90 % of control | dose: 50.0 mg/kg/injection, schedule: Q04DX002 (ip), vehicle: Klucel (hydroxypropylcellulose) (HPC) 101 % of control | dose: 100.0 mg/kg/injection, schedule: Q01DX001 (ip), vehicle: saline 97 % of control | dose: 100.0 mg/kg/injection, schedule: Q04DX002 (ip), vehicle: Klucel (hydroxypropylcellulose) (HPC) 101 % of control | dose: 200.0 mg/kg/injection, schedule: Q01DX001 (ip), vehicle: saline 101 % of control | dose: 400.0 mg/kg/injection, schedule: Q01DX001 (ip), vehicle: saline 90 % of control

O=C1/C(=C\c2ccccn2)CCCc2ccccc21
inactive: dose: 25.0 mg/kg/injection, schedule: Q01DX009 (ip), vehicle: Klucel (hydroxypropylcellulose) (HPC) 102 % of control | dose: 50.0 mg/kg/injection, schedule: Q01DX009 (ip), vehicle: Klucel (hydroxypropylcellulose) (HPC) 98 % of control | dose: 50.0 mg/kg/injection, schedule: Q04DX003 (ip), vehicle: Klucel (hydroxypropylcellulose) (HPC) 98 % of control | dose: 100.0 mg/kg/injection, schedule: Q01DX009 (ip), vehicle: Klucel (hydroxypropylcellulose) (HPC) 101 % of control | [1] 98 % of control | dose: 100.0 mg/kg/injection, schedule: Q04DX003 (ip), vehicle: carboxymethylcellulose (CMC) 96 % of control | dose: 200.0 mg/kg/injection, schedule: Q01DX009 (ip), vehicle: Klucel (hydroxypropylcellulose) (HPC) 100 % of control | [2] 102 % of control | dose: 200.0 mg/kg/injection, schedule: Q04DX003 (ip), vehicle: carboxymethylcellulose (CMC) 100 % of control | dose: 400.0 mg/kg/injection, schedule: Q01DX009 (ip), vehicle: Klucel (hydroxypropylcellulose) (HPC) 102 % of control | dose: 400.0 mg/kg/injection, schedule: Q04DX003 (ip), vehicle: Klucel (hydroxypropylcellulose) (HPC) 93 % of control | dose: 800.0 mg/kg/injection, schedule: Q04DX003 (ip), vehicle: Klucel (hydroxypropylcellulose) (HPC) 104 % of control
active: dose: 400.0 mg/kg/injection, schedule: Q04DX003 (ip), vehicle: carboxymethylcellulose (CMC) 156 % of control

Nc1nc2nc(N=Nc3ccc(C(=O)O)c(O)c3)[nH]c2c(=O)[nH]1
inactive: [1] 99 % of control | [2] 88 % of control

O=[N+]([O-])c1cc(Cl)ccc1O
inactive: dose: 100.0 mg/kg/injection, schedule: Q04DX003 (ip), vehicle: saline with Tween-80 91 % of control | dose: 200.0 mg/kg/injection, schedule: Q04DX003 (ip), vehicle: saline with Tween-80 107 % of control | dose: 400.0 mg/kg/injection, schedule: Q04DX003 (ip), vehicle: saline with Tween-80 96 % of control

COC1=C(N=[N+]=[N-])C(=O)C(OC)=C(N=[N+]=[N-])C1=O
inactive: dose: 2.0 mg/kg/injection, schedule: Q01DX009 (ip), vehicle: carboxymethylcellulose (CMC) 93 % of control | dose: 2.5 mg/kg/injection, schedule: Q01DX001 (ip), vehicle: carboxymethylcellulose (CMC) 95 % of control | dose: 4.0 mg/kg/injection, schedule: Q01DX009 (ip), vehicle: carboxymethylcellulose (CMC) 98 % of control | dose: 5.0 mg/kg/injection, schedule: Q01DX001 (ip), vehicle: carboxymethylcellulose (CMC) 91 % of control | dose: 5.0 mg/kg/injection, schedule: Q04DX003 (ip), vehicle: carboxymethylcellulose (CMC) 93 % of control | dose: 8.0 mg/kg/injection, schedule: Q01DX009 (ip), vehicle: carboxymethylcellulose (CMC) 104 % of control | dose: 10.0 mg/kg/injection, schedule: Q01DX001 (ip), vehicle: carboxymethylcellulose (CMC) 95 % of control and 100 % of control | dose: 10.0 mg/kg/injection, schedule: Q04DX003 (ip), vehicle: carboxymethylcellulose (CMC) 110 % of control | dose: 20.0 mg/kg/injection, schedule: Q01DX001 (ip), vehicle: carboxymethylcellulose (CMC) 98 % of control | dose: 20.0 mg/kg/injection, schedule: Q04DX003 (ip), vehicle: carboxymethylcellulose (CMC) 90 % of control | dose: 30.0 mg/kg/injection, schedule: Q04DX003 (ip), vehicle: saline with Tween-80 93 % of control | dose: 36.25 mg/kg/injection, schedule: Q01DX009 (ip), vehicle: saline 114 % of control | dose: 45.0 mg/kg/injection, schedule: Q04DX003 (ip), vehicle: saline with Tween-80 104 % of control | dose: 65.0 mg/kg/injection, schedule: Q04DX003 (ip), vehicle: saline with Tween-80 100 % of control | dose: 72.5 mg/kg/injection, schedule: Q01DX009 (ip), vehicle: saline 100 % of control | dose: 95.0 mg/kg/injection, schedule: Q04DX003 (ip), vehicle: saline 94 % of control | dose: 145.0 mg/kg/injection, schedule: Q01DX009 (ip), vehicle: saline 86 % of control | dose: 145.0 mg/kg/injection, schedule: Q04DX003 (ip), vehicle: saline 92 % of control

C=C(C)C1(CCCC)C(=O)NC(=O)NC1=O
inactive: dose: 75.0 mg/kg/injection, schedule: Q01DX001 (ip), vehicle: saline 104 % of control and 102 % of control | dose: 150.0 mg/kg/injection, schedule: Q01DX001 (ip), vehicle: saline 107 % of control and 100 % of control | dose: 300.0 mg/kg/injection, schedule: Q01DX001 (ip), vehicle: saline 102 % of control
